Like-named read-outs stand apart in the source and are kept apart here. Bridge positions count the residues as written; N and C are the ends. Square brackets hold non-standard residues; d marks the D form. Peptide text beside a SMILES is read from it. Nspe = C[C@H](NCC(=O)O)c1ccccc1; Nlys = NCCCCNCC(=O)O

Results on 3 compounds are retold here after publication doi:10.1101/2025.04.10.648262, “Time-resolved phenotyping at subcellular resolution reveals shared principles and key trade-offs across antimicrobial peptide activities” (bioRxiv, 2026).

One test relates to E. coli (MG1655). It is filed as cell-based, Escherichia coli. As to the method:
For all experiments and E. coli strains, cells were grown in a medium (M9gluCAAT) with M9 salts (33.7 mM Na2HPO4, 22mM KH2PO4, 8.55 mM NaCl, 9.35 mM NH4Cl), 0.2% (w/v) glucose, 0.4% (w/v) casamino acids, 1 mM MgSO4, 0.3 mM CaCl2, 1 μg/mL thiamine, and trace elements (13.4 mM ethylene-diamine-tetra-acetic-acid (EDTA), 3.1 mM FeCl3-6H2O, 0.62 mM ZnCl2, 76 μM CuCl2-2H2O, 42 μM CoCl2-2H2O, 162 μM H3BO3, 8.1 μM MnCl2-4H2O). Prior to every experiment, cells were first inoculated into M9gluCAAT and grown to stationary phase at 37°C. For all assays except the biofilm experiments, the culture was diluted to 1/10,000 or more in fresh medium and grown at 37°C until it reached an optical density at 600 nm (OD) of 0.2–0.4. For the biofilm experiments, cells were grown in M9gluCAAT supplemented with 100 μg/mL ampicillin to maintain the GFP-expressing plasmid. The overnight stationary-phase cultures were then diluted into the same medium to an OD of 0.015. See below for details on biofilm growth.
Except for the biofilm experiments, the strains used in this study were derived from MG1655 (ATCC 47076), which was used to estimate the minimum inhibitory concentration (MIC) for all the studied peptides (or peptoids) using a microplate reader (Figure 1A). To detect the timing of outer and inner membrane permeabilization to proteins, strain CJW7845 was constructed to carry two freely diffusing fluorescent proteins: mScarlet-I in the periplasm and mTagBFP2 in the cytoplasm. Construction of CJW7845 was done by transforming pBAD-mTagBFP2 plasmid (Addgene #34632, a gift from Vladislav Verkhusha; ([Subach et al., 2011])) into an E. coli strain expressing a periplasmic mScarlet-I reporter ([Cañas-Duarte 2021]), as previously described ([Chung et al., 1989]). Transformants were restreaked on fresh selection plates and confirmed via microscopy.
To determine the minimal inhibitory concentration (MIC) of the selected AMPs against either MG1655 or ATCC 25922 E. coli strains, exponentially growing cells were diluted in fresh medium to an OD = 10^−6 (~500 cells/mL) and mixed 50:50 with titrated AMP concentrations (which were chosen to be over a range that included the MIC) in a 96-well plate (flat bottom with low evaporation lid, 3595, Corning, Arizona, USA). A final OD of 5 × 10^−7 corresponds to ~250 cells/mL. OD curves were sampled every 5 min for a total of 48 h using a microplate reader (BioTek Synergy 2, Agilent Technologies Inc., California, USA). Raw data were exported as a text file and analysed using a custom-written Python script (microplate_reader_analysis.py). To measure maximum growth rates, the log(OD) was fitted using a linear regression over a 12-point moving window (60 min), which provides the instantaneous growth rate (log(OD)/h), from which the global maximum was computed. The MIC was defined as the minimum AMP concentration for which the maximum growth rate was < 0.2 log(OD)/h within the first 20 h of incubation. Each MIC experiment was performed independently at least three times (with at least two technical replicates each), and the mode across all replicates was taken as the final MIC; in the rare cases of a tie, an additional replicate was performed, which was sufficient to resolve it.

Test [1] concerns CJW7753 cells in wide trenches. Briefly: Wide-trench microfluidics, growth inhibition of dense populations. It is filed as cell-based, Escherichia coli. The conditions noted are these: 2X MIC in feeding channel, 37°C, M9gluCAAT with 0.08% Pluronic. From the text:
The design of the wide-trench microfluidics was adapted from the one reported by ([Lambert & Kussell, 2014]). As reported before ([Lin & Jacobs-Wagner, 2022]), the master mold was manufactured in the clean room of the School of Engineering and Applied Science at Yale University. UV photolithography (EVG 620 Mask Aligner) was applied on Si wafers with SU-8 photoresist to generate two layers of positive patterns. The lower layer contained the bacterial culture chambers (wide trenches) while the upper layer contained the large trench for the flowing culture medium. The large feeding region features a ~200 μm width and ~30 μm height. The wide trenches have a width of 7 μm, a depth of ~34–38 μm, and a height of 1.29 μm.
A solution of 9:1 polydimethylsiloxane (PDMS) and curing agent was mixed, degassed to remove air bubbles, poured onto the silicon wafer, and cured at 64.5°C for > 3 h. Note that the 9:1 PDMS:curing agent ratio was used instead of the standard 10:1 to reduce the hydrophobicity of the PDMS and mitigate hydrophobic interactions with AMPs. Once hardened, PDMS chips were cut out from the wafer, and a 1.2 mm biopsy punch was used to create inlet and outlet holes. The current chip design features two independent channels per chip. To allow for a higher temperature during PDMS-glass bonding, the glass bottom part of the dish was used during the following steps (without the plastic support glued to it). […]
To analyse wide-trench time-lapse images, drift correction was first performed using OmniSegger, followed by a custom Python script (drift_correction_wide_trenches.py) to correct for the slow residual drift that remained after the first correction step. The resulting drift-corrected timelapse data were analysed with the OmniSegger pipeline using the ribosome-fluorescence wide-trench Omnipose model described above, allowing cell segmentation and cell linking to be performed in the same general manner as for the PDMS-microwell experiments. […]

For the compound `CC[C@@H](C)[C@@H](NC(=O)[C@@H](C)NC(=O)[C@@H](CCCNC(=N)N)NC(=O)[C@@H](Cc1c[nH]c2ccccc12)NC(=O)[C@@H](CCC(N)=O)NC(=O)[C@H](N)C(C)C)C(=O)N[C@H](CCCNC(=N)N)C(=O)N[C@@H](C(=O)N[C@H](CCCNC(=N)N)C(=O)N[C@@H](C(=O)N[C@@H](C(=O)N[C@H](CCCNC(=N)N)C(N)=O)[C@H](C)CC)C(C)C)C(C)C` [DJK-5] (H-[dV][dQ][dW][dR][dA][dI][dR][dV][dR][dV][dI][dR]-NH2; N-terminus and C-terminus assumed), the “MIC (mode MIC)” value in the test on E. coli (MG1655) (MG1655, 20 h) worked out at 2.5 µM. Besides, the “Growth inhibition of dense cell population in wide trenches” value (from here on “Growth inhibition”) in test [1] is “able to inhibit cell growth throughout the entire wide trenches”.

For `CC[C@H](C)[C@@H]1NC(=O)CNC(=O)[C@H](CCCNC(=N)N)NC(=O)[C@H](Cc2ccc(O)cc2)NC(=O)[C@@H]2CSSC[C@H](NC1=O)C(=O)N[C@@H](Cc1ccc(O)cc1)C(=O)N[C@@H](CCCNC(=N)N)C(=O)N[C@@H](CCCNC(=N)N)C(=O)N[C@H](C(=O)N[C@@H](CCCNC(=N)N)C(N)=O)CSSC[C@H](NC(=O)[C@H](Cc1c[nH]c3ccccc13)NC(=O)[C@@H](N)CCCCN)C(=O)N[C@@H](Cc1ccccc1)C(=O)N[C@@H](CCCNC(=N)N)C(=O)N[C@@H](C(C)C)C(=O)N2` [Tac1, tachyplesin-1] (H-KWCFRVCYRGICYRRCR-NH2; disulfide 3-16, 7-12 (inferred); N-terminus assumed), in the test on E. coli (MG1655) (MG1655, 20 h), the “MIC (mode MIC)” value is reported as 0.6 µM. Moreover, the “Growth inhibition” value in test [1] was “primarily inhibited the growth of cells near the top of the trenches”.

Regarding `C[C@@H](c1ccccc1)N(CC(N)=O)C(=O)CN(C(=O)CN(CCCCN)C(=O)CN(C(=O)CN(C(=O)CN(CCCCN)C(=O)CN(C(=O)CN(C(=O)CN(CCCCN)C(=O)CN(C(=O)CN(C(=O)CNCCCCN)[C@@H](C)c1ccccc1)[C@@H](C)c1ccccc1)[C@@H](C)c1ccccc1)[C@@H](C)c1ccccc1)[C@@H](C)c1ccccc1)[C@@H](C)c1ccccc1)[C@@H](C)c1ccccc1` [TM1] (H-[Nlys][Nspe][Nspe][Nlys][Nspe][Nspe][Nlys][Nspe][Nspe][Nlys][Nspe][Nspe]-NH2), the “MIC (mode MIC)” value in the test with E. coli (MG1655) (E. coli MG1655, M9gluCAAT, 37°C, 20 h, inoculum ~250 cells/mL, max growth rate < 0.2 log(OD)/h, mode across three biological replicates with two technical replicates each) came to 2.5 µM. Also, the “Growth inhibition” value in test [1] is recorded as “localized growth inhibition”.
